Reference: US20180251434A1, “ANTIBACTERIAL HETEROCYCLIC DERIVATIVES” (priority 2015, published 2018)
Converted amounts (≈) assume the structure as drawn. Where two headings read alike, the source gives them in different places.

How the values were obtained:
Format in all cases: cell-based
K. Pneumoniae A-651 = test: Bacterial growth minimal inhibitory concentration (broth microdilution, CLSI M7-A7); conditions: cation-adjusted Mueller Hinton Broth, multiply-resistant (quinolone-resistant) strain; for MIC: Klebsiella pneumoniae
Procedure: (§1) Minimal Inhibitory Concentrations (MICs; mg/L) were determined in cation-adjusted MuellerHinton Broth by a microdilution method following the description given in “Methods for Dilution Antimicrobial Susceptibility Tests for Bacteria that grow Aerobically”, Approved standard, 7th ed., Clinical and Laboratory Standards Institute (CLSI) Document M7-A7, Wayne, Pa., USA (2006).
(§2) All Example compounds were tested against several Gram-positive and Gram-negative bacteria. […] K pneumoniae A-651 is a multiply-resistant strain (in particular quinolone-resistant), while E. coli ATCC25922 and P. aeruginosa ATCC27853 are quinolone-sensitive strains.

P. aeruginosa ATCC27853 = test: as above; conditions: quinolone-sensitive strain; for MIC: Pseudomonas aeruginosa, ATCC27853, cation-adjusted Mueller Hinton Broth; for MIC for P. aeruginosa ATCC27853: cation-adjusted Mueller Hinton Broth
Procedure: as §1, §2

E. coli ATCC25922 = test: as above; conditions: quinolone-sensitive strain; for MIC: Escherichia coli, ATCC25922, cation-adjusted Mueller Hinton Broth; for MIC for E. coli ATCC25922: cation-adjusted Mueller Hinton Broth
Procedure: as §1, §2

wild-type E. coli A-1261 = test: MIC with or without alkaline phosphatase or esterase (prodrug activation); conditions: Escherichia coli
Procedure: Minimal Inhibitory Concentrations (MICs; mg/L) were determined in cation-adjusted MuellerHinton Broth by a microdilution method following the description given in “Methods for Dilution Antimicrobial Susceptibility Tests for Bacteria that grow Aerobically”, Approved standard, 7th ed., Clinical and Laboratory Standards Institute (CLSI) Document M7-A7, Wayne, Pa., USA (2006). The compounds of Examples 5 and 12 were tested against wild-type E. coli A-1261 in the absence of alkaline phosphatase or esterase, in the presence of an alkaline phosphatase, and in the presence of an esterase. The corresponding antibacterial test results are given in Table 2 hereafter (MICs in mg/L).

[1] = alkaline phosphatase 2 i.U./mL, read-out: MIC for E. coli A-1261 In the presence of an alkaline phosphatase (2 i.U./mL)
[2] = esterase 10 i.U./mL, read-out: MIC for E. coli A-1261 In the presence of an esterase (10 i.U./mL)
[3] = no alkaline phosphatase or esterase, read-out: MIC for E. coli A-1261 In the absence of alkaline phosphatase or esterase

MIC (K. Pneumoniae A-651) [µg/mL] | MIC (P. aeruginosa ATCC27853) [µg/mL] | MIC (E. coli ATCC25922) [µg/mL] | MIC (wild-type E. coli A-1261; [1]) [µg/mL] | MIC (wild-type E. coli A-1261; [2]) [µg/mL] | MIC (wild-type E. coli A-1261; [3]) [µg/mL] | SMILES | MIC for K. Pneumoniae A-651 (K. Pneumoniae A-651) [µg/mL] | MIC for P. aeruginosa ATCC27853 (P. aeruginosa ATCC27853) [µg/mL] | MIC for E. coli ATCC25922 (E. coli ATCC25922) [µg/mL]
1 (≈ 1.98 µM) | 1 (≈ 1.98 µM) | 0.5 (≈ 0.989 µM) | – | – | – | C[C@@](CCn1c(=O)oc2cc(C#CC#CCOC(=O)N3CC(O)C3)ccc21)(C(=O)NO)S(C)(=O)=O [Example 7, (3R)-5-(3-(4-(hydroxyamino)-3-methyl-3-(methylsulfonyl)-4-oxobutyl)-2-oxo-2,3-dihydrobenzo[d]oxazol-6-yl)penta-2,4-diyn-1-yl 3-hydroxyazetidine-1-carboxylate] | – | – | –
8 (≈ 17.8 µM) | > 8 | 4 (≈ 8.92 µM) | – | – | – | CC(CCn1c(=O)oc2cc(C#CC#CC3(O)COC3)ccc21)(C(=O)NO)S(C)(=O)=O (racemic) [RE2, (2RS)—N-hydroxy-4-(6-((3-hydroxyoxetan-3-yl)buta-1,3-diyn-1-yl)-2-oxobenzo[d]oxazol-3(2H)-yl)-2-methyl-2-(methylsulfonyl)butanamide] | – | – | –
0.25 (≈ 0.561 µM) | 1 (≈ 2.24 µM) | 0.25 (≈ 0.561 µM) | – | – | – | CNC1(C#CC#Cc2ccc3c(c2)oc(=O)n3CC[C@](C)(C(=O)NO)S(C)(=O)=O)CC1 [Example 4, (2R)—N-hydroxy-2-methyl-4-(6-((1-(methylamino)cyclopropyl)buta-1,3-diyn-1-yl)-2-oxobenzo[d]oxazol-3(2H)-yl)-2-(methylsulfonyl)butanamide] | – | – | –
0.25 (≈ 0.52 µM) | 1 (≈ 2.08 µM) | 0.063 (≈ 0.131 µM) | – | – | – | C[C@@](CCn1c(=O)sc2cc(C#CC#C[C@H]3C[C@]3(F)CO)ccc21)(C(=O)NO)S(C)(=O)=O [Example 11, (2R)-4-(6-(((1R,2R)-2-fluoro-2-(hydroxymethyl)cyclopropyl)buta-1,3-diyn-1-yl)-2-oxobenzo[d]thiazol-3(2H)-yl)-N-hydroxy-2-methyl-2-(methylsulfonyl)butanamide] | – | – | –
1 (≈ 2.17 µM) | 2 (≈ 4.33 µM) | 0.5 (≈ 1.08 µM) | – | – | – | CN1CC(C#CC#Cc2ccc3c(c2)sc(=O)n3CC[C@](C)(C(=O)NO)S(C)(=O)=O)C1 [Example 10, (2R)—N-hydroxy-2-methyl-4-(6-((1-methylazetidin-3-yl)buta-1,3-diyn-1-yl)-2-oxobenzo[d]thiazol-3(2H)-yl)-2-(methylsulfonyl)butanamide] | – | – | –
1 (≈ 2.21 µM) | > 8 | 2 (≈ 4.42 µM) | – | – | – | COc1ccc(-c2ccc3c(c2)oc(=O)n3CCC(C)(C(=O)NO)S(C)(=O)=O)c(F)c1 (racemic) [RE1, (2RS)-4-(6-(2-fluoro-4-methoxyphenyl)-2-oxobenzo[d]oxazol-3(2H)-yl)-N-hydroxy-2-methyl-2-(methylsulfonyl)butanamide] | – | – | –
– | – | – | 0.125 | > 8 | > 8 | C[C@@](CCn1c(=O)oc2cc(C#CC#C[C@H]3C[C@@H]3COP(=O)(O)O)ccc21)(C(=O)NO)S(C)(=O)=O [Example 12, ((1S,2S)-2-((3-((3R)-4-(hydroxyamino)-3-methyl-3-(methylsulfonyl)-4-oxobutyl)-2-oxo-2,3-dihydrobenzo[d]oxazol-6-yl)buta-1,3-diyn-1-yl)cyclopropyl)methyl dihydrogen phosphate] | – | – | –
0.25 (≈ 0.579 µM) | 1 (≈ 2.32 µM) | 0.125 (≈ 0.29 µM) | – | – | – | C[C@@](CCn1c(=O)oc2cc(C#CC#CC3(N)CC3)ccc21)(C(=O)NO)S(C)(=O)=O [Example 8, (2R)-4-(6-((1-aminocyclopropyl)buta-1,3-diyn-1-yl)-2-oxobenzo[d]oxazol-3(2H)-yl)-N-hydroxy-2-methyl-2-(methylsulfonyl)butanamide] | – | – | –
– | – | – | – | – | – | C[C@@](CCn1c(=O)oc2cc(C#CC#CC3(CO)CC3)ccc21)(C(=O)NO)S(C)(=O)=O [Example 2, (2R)—N-hydroxy-4-(6-((1-(hydroxymethyl)cyclopropyl)buta4,3-diyn-1-yl)-2-oxobenzo[d]oxazol-3(2H)-yl)-2-methyl-2-(methylsulfonyl)butanamide] | 1 | 1 | 0.25
– | – | – | – | – | – | C[C@@](CCn1c(=O)oc2cc(C#Cc3ccc(CO)cc3)ccc21)(C(=O)NO)S(C)(=O)=O [Example 1] | 0.5 | 4 | 0.25
0.125 (≈ 0.28 µM) | 0.5 (≈ 1.12 µM) | 0.063 (≈ 0.141 µM) | 0.063 | 0.063 | 0.063 (≈ 0.141 µM) | C[C@@](CCn1c(=O)oc2cc(C#CC#C[C@H]3C[C@@H]3CO)ccc21)(C(=O)NO)S(C)(=O)=O [Example 5, (2R)—N-hydroxy-4-(6-(((1S,2S)-2-(hydroxymethyl)cyclopropyl)buta-1,3-diyn-1-yl)-2-oxobenzo[d]oxazol-3 (2H)-yl)-2-methyl-2-(methylsulfonyl)butanamide] | – | – | –
0.5 (≈ 1.12 µM) | 1 (≈ 2.24 µM) | 1 (≈ 2.24 µM) | – | – | – | CN1CC(C#CC#Cc2ccc3c(c2)oc(=O)n3CC[C@](C)(C(=O)NO)S(C)(=O)=O)C1 [Example 9, (2R)—N-hydroxy-2-methyl-4-(6-((1-methylazetidin-3-yl)buta-1,3-diyn-1-yl)-2-oxobenzo[d]oxazol-3(2H)-yl)-2-(methylsulfonyl)butanamide] | – | – | –
0.25 (≈ 0.538 µM) | 0.5 (≈ 1.08 µM) | 0.125 (≈ 0.269 µM) | – | – | – | C[C@@](CCn1c(=O)oc2cc(C#CC#C[C@H]3C[C@]3(F)CO)ccc21)(C(=O)NO)S(C)(=O)=O [Example 6, (2R)-4-(6-(((1R,2R)-2-fluoro-2-(hydroxymethyl)cyclopropyl)buta-1,3-diyn-1-yl)-2-oxobenzo[d]oxazol-3(2H)-yl)-N-hydroxy-2-methyl-2-(methylsulfonyl)butanamide] | – | – | –
– | – | – | – | – | – | C[C@@](CCn1c(=O)oc2cc(C#Cc3ccc(CN4CCOCC4)cc3)ccc21)(C(=O)NO)S(C)(=O)=O [Example 3] | 2 | >8 | 2
– | – | – | – | – | – | C[C@@](CCn1c(=O)sc2cc(C#Cc3ccc(CO)cc3)ccc21)(C(=O)NO)S(C)(=O)=O [Example 13] | 0.5 | 8 | 0.125
